These results are taken from patent publication US20250380702A1, “HERBICIDAL MIXTURES COMPRISING L-GLUFOSINATE OR ITS SALT AND A SECOND HERBICIDE” (BASF SE, priority 2022, published 2025).

Where “and” joins values, the source holds several entries; their conditions need not be identical. Equal values may be shown once. Read-outs that look alike come from different tables or passages of the source.

Assay in all cases: Greenhouse post emergence treatment, herbicidal activity
The subject of one experiment is Volunteer HORVS. It is filed as in vivo, Volunteer Barley. The following applies: for % activity: solo application, post emergence. The text has this:
(§1) Synergism can be described as an interaction where the combined effect of two or more compounds is greater than the sum of the individual effects of each of the compounds. The presence of a synergistic effect in terms of percent control, between two mixing partners (X and Y) can be calculated using the Colby equation (Colby, S. R., 1967, Calculating Synergistic and Antagonistic Responses in Herbicide Combinations, Weeds, 15, 21-22):
(§2) When the observed combined control effect is greater than the expected (calculated) combined control effect (E), then the combined effect is synergistic.
(§3) The culture containers used were plastic flowerpots containing loamy sand with approximately 3.0% of humus as the substrate. The seeds of the test plants were sown separately for each species and/or resistant biotype. For the pre-emergence treatment, the active ingredients, which had been suspended or emulsified in water, were applied directly after sowing by means of finely distributing nozzles. The containers were irrigated gently to promote germination and growth and subsequently covered with transparent plastic hoods until the plants had rooted. This cover caused uniform germination of the test plants, unless this had been impaired by the active ingredients. For the post-emergence treatment, the test plants were first grown to a height of 3 to 15 cm, depending on the plant habit, and only then treated with the active ingredients which had been suspended or emulsified in water. For this purpose, the test plants were either sown directly and grown in the same containers, or they were first grown separately as seedlings and transplanted into the test containers a few days prior to treatment. Depending on the species, the plants were kept at 10-25° C. or 20-35° C., respectively. The test period extended to 20 days after treatment. During this time, the plants were tended, and their response to the individual treatments was evaluated. The evaluation was carried out by using a scale from 0 to 100. 100 means no emergence of the plants or complete destruction of at least the above-ground parts, and 0 means no damage, or normal course of growth.
(§4) As indicated in the respective examples, assessment was either after 7 days or 20 days after treatment (DAT).

For the next experiment, the system named is CHEAL. The format is in vivo, Chenopodium album. The following applies: solo application, 7 DAT.
Excerpt: as §1, §2, §3, §4

In the next experiment the test system is ABUTH. The format is in vivo, Abutilon theophrasti. Particulars: solo application; for inhibition at 250 g/ha: Abutilon theophrasti, 250 gai/ha.
Excerpt: as §1, §2, §3, §4

The test system of a further experiment is POLAV. The format is in vivo, Polygonum aviculare. Particulars: solo application, 7 DAT.
Excerpt: as §1, §2, §3, §4

The next experiment has as its system AVEFA. The format is in vivo, Avena fatua. Particulars: solo application, 7 DAT.
Excerpt: as §1, §2, §3, §4

For another experiment, the system named is KCHSC. It is filed as in vivo, Bassia scoparia. The following applies: for % activity: solo application, post emergence, 7 DAT.
Excerpt: as §1, §2, §3, §4

The mark [1] stands for this setting: Bassia scoparia, post-emergence, 168 h, read-out: % activity.

Take `CN1C[C@H](c2cccc(C(F)(F)F)c2)[C@@H](C(=O)Nc2ccccc2F)C1=O` [Tetflupyrolimet]: the “% activity” value was 0% in the experiment with Volunteer HORVS (12.5 gai/ha, 7 DAT); 5% and 0% in the experiment with Volunteer HORVS (12.5 gai/ha, 20 DAT); 0% with Volunteer HORVS (25 gai/ha, 7 DAT); 5% in the experiment on Volunteer HORVS (25 gai/ha, 20 DAT); 0% in the experiment with Volunteer HORVS (50 gai/ha, 7 DAT); 5% with Volunteer HORVS (50 gai/ha, 20 DAT). For the same compound, the “% activity” value with Volunteer HORVS (100 gai/ha, 7 DAT) amounted to 5%; in the experiment on CHEAL (50 gai/ha), 15%; with CHEAL (100 gai/ha), 25%; with ABUTH (25 gai/ha, 7 DAT), 0%; in the experiment on ABUTH (25 gai/ha, 20 DAT) it was 0%; in the experiment with ABUTH (100 gai/ha, 7 DAT) it was 0%. In addition, the “% activity” value in the experiment with ABUTH (100 gai/ha, 20 DAT) is reported as 0%; with POLAV (50 gai/ha) it was 5%; in the experiment with POLAV (100 gai/ha) it was 5%; with AVEFA (50 gai/ha) it was 0%; in the experiment on AVEFA (100 gai/ha), 0%; in the experiment with KCHSC (25 gai/ha), 0%. Moreover, the “% activity” value is 0% in the experiment on KCHSC (50 gai/ha) and 2.5% with KCHSC (100 gai/ha).

With `CP(=O)(O)CC[C@H](N)C(=O)O.N` [L-Glu, ammonium (2S)-2-amino-4-(methylphosphinato) butyric acid], in the experiment on Volunteer HORVS (Hordeum vulgare, post-emergence, 168 h, read-out: % activity, solo application, 125 gai/ha, post emergence, 7 DAT), the inhibition at 125 g/ha is 90%. Further, the inhibition at 250 g/ha with Volunteer HORVS (Hordeum vulgare, post-emergence, 168 h, read-out: % activity, solo application, 250 gai/ha, post emergence, 7 DAT) was 90%; with Volunteer HORVS (Hordeum vulgare, post-emergence, 480 h, read-out: % activity, solo application, 250 gai/ha, post emergence, 20 DAT), 75%; in the experiment on ABUTH (168 h, 7 DAT), 75%; with ABUTH (480 h, 20 DAT) it was 60%; with KCHSC (setting [1]) it was 88%. Besides, the inhibition at 500 g/ha in the experiment on Volunteer HORVS (Hordeum vulgare, post-emergence, 168 h, read-out: % activity, solo application, 500 gai/ha, post emergence, 7 DAT) stood at 95%; in the experiment with Volunteer HORVS (Hordeum vulgare, post-emergence, 480 h, read-out: % activity, solo application, 500 gai/ha, post emergence, 20 DAT), 85%; with CHEAL (Chenopodium album, 168 h, 500 gai/ha) it was 95%; with POLAV (Polygonum aviculare, 168 h, 500 gai/ha), 95%; in the experiment with AVEFA (Avena fatua, 168 h, 500 gai/ha), 90%; in the experiment on KCHSC (setting [1]), 88%. Besides, in the experiment with Volunteer HORVS (125 gai/ha, 20 DAT), the “% activity” value is 65% and 35%. For the same compound, the inhibition at 1000 g/ha in the experiment on CHEAL (Chenopodium album, 168 h, 1000 gai/ha) stood at 95%; in the experiment on POLAV (Polygonum aviculare, 168 h, 1000 gai/ha), 95%; in the experiment on AVEFA (Avena fatua, 168 h, 1000 gai/ha) it was 90%; in the experiment with KCHSC (setting [1]), 90%.
